Patent US12140600B2, “Method for measuring activated partial thromboplastin time” (SYSMEX CORPORATION, priority 2019, dated 2024)

Assay: Effect of suppressing precipitation of ellagic acid-metal ion complex (salting out, dynamic light scattering and visual check)
Format: physicochemical
Conditions: for degree of increase in particle size of complex with respect to the increase in salt concentration / precipitation, visually confirmed: additive 100 μM; for degree of increase in particle size of complex with respect to the increase in salt concentration: sodium chloride 10, 50 or 100 mM, FIG. 3; for precipitation, visually confirmed: sodium chloride concentration 100 mM; for precipitation suppressing effect versus additive concentration: additive at various concentrations, FIGS. 4A and 4B
Description: In an APTT reagent comprising a metal ion complex of ellagic acid as an activator, when the salt concentration increases, the complex particle size increases by the salting-out effect, and finally precipitation occurs. By utilizing the principle of salting out, the effect of suppressing the precipitation of various additives in ellagic acid-metal ion complex solutions was confirmed.
An ellagic acid-metal ion complex solution was prepared to contain 50 mM HEPES, 8 mM TAPS, and 1% by mass glycine as buffer components, 100 μM ellagic acid, 60 μM zinc chloride, and 50 μM aluminum chloride as a metal ion complex of ellagic acid, and 0.05% ProClin (trademark) 300 (Sigma-Aldrich Co., LLC.) as a preservative. A complex solution comprising each additive at a concentration of 100 μM was obtained by mixing this solution with any one selected from gallic acid, pyrogallol, hydroquinone, 5-methylpyrogallol, resorcinol, or cyclohexanetriol as an additive. As a control, an ellagic acid-metal ion complex solution not comprising an additive was used.
Each complex solution prepared in (1) above was mixed with a 5 M sodium chloride solution to obtain a mixed solution (test group) having a sodium chloride concentration of 10 mM, 50 mM, or 100 mM. The relationship between the salt concentration in each mixed solution and the average particle size of complex was confirmed by a dynamic scattered light method using Zetasizer Nano (Malvern Panalytical Ltd.). The results are illustrated in FIG. 3.
The effect of suppressing precipitation was confirmed in the same manner as in (2) above using the complex solutions containing gallic acid or pyrogallol at various concentrations. The results are illustrated in FIGS. 4A and 4B.

## O=C(O)c1cc(O)c(O)c(O)c1 [gallic acid]
  degree of increase in particle size of complex with respect to the increase in salt concentration: small
  precipitation, visually confirmed: precipitation has not been visually confirmed
  precipitation suppressing effect versus additive concentration: precipitation suppressing effect is observed at all concentrations

## Oc1cccc(O)c1O [pyrogallol]
  degree of increase in particle size of complex with respect to the increase in salt concentration: small
  precipitation, visually confirmed: precipitation has not been visually confirmed
  precipitation suppressing effect versus additive concentration: precipitation suppressing effect is observed at all concentrations
